Patent EP1306084A1, “Compositions for the control of parasitic infestations in fish” (Alpharma AS, priority 1998, dated 1999)

What was measured:
sea lice [1] = experiment: Oral treatment (coated feed / Akvaletter) of naturally sea lice infected salmon in minicages (Example 2); type: in vivo, Atlantic salmon (Salmo salar); details: fluazuron groups, 9.0-12.0 mg per day, 7 days
Description: The treatment dosage was 9 mg hexaflumuron per kg fish per day for 10 days. This is indicated by "Groups/Timepoints" in the figure; • Figure 2 relates to the trial in Example 2 that was carried out on Atlantic salmon (Salmo salar). […] The treatment dosage varied between 3 - 9 mg hexaflumuron and 9- 12 mg fluazuron per kg fish per day for 7 days. This is indicated by "Groups/Timepoints" in the diagram. […] The treated groups are compared to an untreated control group. The treatment dosage was 4 mg hexaflumuron per kg fish per day for 5 days. This is indicated by "Groups/Timepoints" in the figure. Cage 2 = controls, Cage 4-6 = treated groups, 16.6.97 = time point for sea transfer and 5.8.97= controls treated by bathing with deltamethrin; • Figure 4 relates to the trial described in Example 5, which was carried out on sea trout (Salmo trutta). […] The treated groups are compared with an untreated control group. The dosage for oral treatment was 4 mg hexaflumuron per kilo fish per day for 5 days, and 5 ppm hexaflumuron as a 30 minute bath treatment. This is indicated by "Groups/Timepoints" in the figure. Cage 1.4 = Controls, cage 1.3 = Oral treatment, cage 1.2 = Bath treatment. […] The treated groups are compared with an untreated control group, and one group that has been treated orally with teflubenzuron (10 mg/kg of teflubenzuron per kg fish per day for 7 days). The dosage for oral treatment was 5.6 mg hexaflumuron per kg fish per day for 7 days, and 5 ppm hexaflumuron as a 30 minute bath treatment. […] End of treatment: 22.10.97, Sea transfer: 23.10.97. T1 = 3 weeks post end of treatment, T2 = 5 weeks post end of treatment, T3 = 9 weeks post end of treatment, T4 = 12 weeks post end of treatment; • Figure 6 relates to the trial in Example 6 at time points 4-6, with the same trial parameters as for Figure 5. T5 = 15 weeks post end of treatment, T6 = 17 weeks post end of treatment. Cage 3 and 4 were treated by bath with deltamethrin after sea lice counting at T4 (12.01.98); • Figure 7 relates to the trial described in Example 7 where salmon were injected on 17.12.97 with two formulations (groups L and R, respectively) of hexaflumuron and a vaccine formulation without hexaflumuron (control). […] The vaccinated fish was transferred to sea water on 09.01.98; • Figure 8 summarises the trial of Example 8 where salmon smolts were injected with 9 different active substances on 08.07.98. Only results for Moxidectin (Mox.), Lufenuron (Luf.) and hexaflumuron in Apoject 1-Fural (Hex.Apo) and in animal oil (Hex.oil) are shown, and • Figure 9 summarises the trial described in Example 10 where salmon were injected on 03.12.97 with 3 different formulations of hexaflumuron (Hexa 1, Hexa 2 and Hexa 3). The fish were transferred to sea water at T0. […]

sea lice [2] = experiment: Oral treatment in freshwater before sea transfer, sea lice counts after natural infection (Example 4); type: in vivo, salmon (Salmo salar); details: bath treatment, 7 weeks into the trial
Description: (§1) The treatment dosage was 9 mg hexaflumuron per kg fish per day for 10 days. This is indicated by "Groups/Timepoints" in the figure; • Figure 2 relates to the trial in Example 2 that was carried out on Atlantic salmon (Salmo salar). […] The treatment dosage varied between 3 - 9 mg hexaflumuron and 9- 12 mg fluazuron per kg fish per day for 7 days. This is indicated by "Groups/Timepoints" in the diagram. […] The treated groups are compared to an untreated control group. The treatment dosage was 4 mg hexaflumuron per kg fish per day for 5 days. This is indicated by "Groups/Timepoints" in the figure. Cage 2 = controls, Cage 4-6 = treated groups, 16.6.97 = time point for sea transfer and 5.8.97= controls treated by bathing with deltamethrin; • Figure 4 relates to the trial described in Example 5, which was carried out on sea trout (Salmo trutta). […] The treated groups are compared with an untreated control group. The dosage for oral treatment was 4 mg hexaflumuron per kilo fish per day for 5 days, and 5 ppm hexaflumuron as a 30 minute bath treatment. This is indicated by "Groups/Timepoints" in the figure. Cage 1.4 = Controls, cage 1.3 = Oral treatment, cage 1.2 = Bath treatment. […] The treated groups are compared with an untreated control group, and one group that has been treated orally with teflubenzuron (10 mg/kg of teflubenzuron per kg fish per day for 7 days). The dosage for oral treatment was 5.6 mg hexaflumuron per kg fish per day for 7 days, and 5 ppm hexaflumuron as a 30 minute bath treatment. […] End of treatment: 22.10.97, Sea transfer: 23.10.97. […]
About 2,500 salmon (Salmo salar) of average weight 42 grams were treated orally with a daily dosage of 4 mg hexaflumuron per kilo fish for 5 days. […] The number of lice on 10 fish from each cage were counted every third week to check if there was any difference in the number of lice in the cages. […]

sea lice [3] = experiment: Oral or bath treatment in freshwater before sea transfer, sea lice counts after natural infection (Example 5); type: in vivo, sea trout (Salmo trutta); details: bath treatment 2, 5 and 8 weeks after sea transfer
Description: as §1, with “23.10.97. T1 = 3 weeks post end of treatment, T2 = 5 weeks post end of treatment, T3 = 9 weeks post end of treatment, T4 = 12 weeks post end of treatment; • Figure 6 relates to the trial in Example 6 at time points 4-6, with the same trial parameters as for Figure 5.” for “23.10.97.”
About 300 sea trout (Salmo trutta) of an average weight of 160 grams were divided into three groups of 100 fish each. […] Lice from 6-10 fish from each cage were counted every third week to assess whether there was any difference in the number of lice between the cages. […]

sea lice [4] = experiment: Oral or bath treatment in freshwater before sea transfer, sea lice counts after natural infestation (Example 6); type: in vivo, Atlantic salmon (Salmo salar)
Description: (§2) The treatment dosage was 9 mg hexaflumuron per kg fish per day for 10 days. This is indicated by "Groups/Timepoints" in the figure; • Figure 2 relates to the trial in Example 2 that was carried out on Atlantic salmon (Salmo salar). […] The treatment dosage varied between 3 - 9 mg hexaflumuron and 9- 12 mg fluazuron per kg fish per day for 7 days. This is indicated by "Groups/Timepoints" in the diagram. […] The treated groups are compared to an untreated control group. The treatment dosage was 4 mg hexaflumuron per kg fish per day for 5 days. This is indicated by "Groups/Timepoints" in the figure. Cage 2 = controls, Cage 4-6 = treated groups, 16.6.97 = time point for sea transfer and 5.8.97= controls treated by bathing with deltamethrin; • Figure 4 relates to the trial described in Example 5, which was carried out on sea trout (Salmo trutta). […] The treated groups are compared with an untreated control group. The dosage for oral treatment was 4 mg hexaflumuron per kilo fish per day for 5 days, and 5 ppm hexaflumuron as a 30 minute bath treatment. This is indicated by "Groups/Timepoints" in the figure. Cage 1.4 = Controls, cage 1.3 = Oral treatment, cage 1.2 = Bath treatment. […] The treated groups are compared with an untreated control group, and one group that has been treated orally with teflubenzuron (10 mg/kg of teflubenzuron per kg fish per day for 7 days). The dosage for oral treatment was 5.6 mg hexaflumuron per kg fish per day for 7 days, and 5 ppm hexaflumuron as a 30 minute bath treatment. […] End of treatment: 22.10.97, Sea transfer: 23.10.97. T1 = 3 weeks post end of treatment, T2 = 5 weeks post end of treatment, T3 = 9 weeks post end of treatment, T4 = 12 weeks post end of treatment; • Figure 6 relates to the trial in Example 6 at time points 4-6, with the same trial parameters as for Figure 5. T5 = 15 weeks post end of treatment, T6 = 17 weeks post end of treatment. Cage 3 and 4 were treated by bath with deltamethrin after sea lice counting at T4 (12.01.98); • Figure 7 relates to the trial described in Example 7 where salmon were injected on 17.12.97 with two formulations (groups L and R, respectively) of hexaflumuron and a vaccine formulation without hexaflumuron (control). […] The vaccinated fish was transferred to sea water on 09.01.98; • Figure 8 summarises the trial of Example 8 where salmon smolts were injected with 9 different active substances on 08.07.98. Only results for Moxidectin (Mox.), Lufenuron (Luf.) and hexaflumuron in Apoject 1-Fural (Hex.Apo) and in animal oil (Hex.oil) are shown, and • Figure 9 summarises the trial described in Example 10 where salmon were injected on 03.12.97 with 3 different formulations of hexaflumuron (Hexa 1, Hexa 2 and Hexa 3). The fish were transferred to sea water at T0.
About 400 Atlantic salmon (Salmo salar) of an average weight of 80 grams were divided into four groups of 100 fish in each. One group was given an oral treatment of 5.6 mg hexaflumuron per kg fish each day for 7 days before sea transfer. Group two was given a bath treatment with a dosage of 5 ppm (mg/l) hexaflumuron for 30 minutes with a formulation containing 10% hexaflumuron. Group three was given oral treatment with a daily dosage of 10 mg teflubenzuron per kg fish for 7 days, while the last group remained untreated. […] Every third week, lice from 10 fish in each cage were counted to assess if there was a difference in the number of lice between the cages. […]

sea lice [5] = experiment: Injection of 9 active substances, protective effect against sea lice (Example 8); type: in vivo, salmon smolt
Description: as §2
In this trial 9 different active substances were tested for protective effect against sea lice. 1,200 salmon smolt were, prior the start of the trial, vaccinated with a commercial vaccine, ALPHA JECT 5100.
One week after sea water transfer the salmon was divided into 12 groups and injected with different formulations of the 9 different active substances. In parallel with the 12 groups, a 13th group comprising 50 fish of the same origin and size was injected with a saline (PBS) solution without active substance. This group served as negative control/reference group in respect of sea lice infestations. The groups were marked by fin cutting and distributed randomly into 3 cages.
The active substances that were used as injection were hexaflumuron, buprofezin, diflubenzuron, fluazuron, lufenuron, ivermectin, doramectin, moxidectin and milbemycin oxime, respectively. All the fish were injected with 0.2 ml of the various injection formulations. Hexaflumuron, buprofezin, fluazuron, lufenuron and diflubenzuron were administered at a dosage of about 50 mg/kg whereas ivermectin, doramectin and moxidectin were administered at a dosage of 0.2 mg/kg (recommended dosage for mammals). […]

O=C(NC(=O)c1c(F)cccc1F)Nc1ccc(Cl)c(Oc2ncc(C(F)(F)F)cc2Cl)c1 [fluazuron, reference compound]
reduction as compared to the control group (sea lice [1]): 25%

CC1(C)[C@H](C(=O)O[C@H](C#N)c2cccc(Oc3ccccc3)c2)[C@@H]1C=C(Br)Br [deltamethrin, reference compound]
bath treatment of control fish to reduce the number of pre-adult lice (sea lice [2]): successful
bath treatment of control fish, number of lice (sea lice [3]): successful
bath treatment of control and teflubenzuron groups, number of lice (sea lice [4]; bath treatment after T4): successful

O=C(NC(=O)c1c(F)cccc1F)Nc1cc(Cl)c(F)c(Cl)c1F [teflubenzuron]
number of lice compared with untreated control group (sea lice [4]; oral 10 mg teflubenzuron per kg fish daily for 7 days, at each assessment): same number of lice as the untreated control group
protection against new establishments by sea lice (sea lice [4]; summary statement referring to Example 6): do not protect

O=C(NC(=O)c1c(F)cccc1F)Nc1ccc(Cl)cc1 [diflubenzuron, reference compound]
protection against new establishments by sea lice (sea lice [5]; summary statement referring to Example 8): do not protect

O=C(NC(=O)c1c(F)cccc1F)Nc1cc(Cl)c(OC(F)(F)C(F)C(F)(F)F)cc1Cl (centres unmarked) [lufenuron, reference compound]
protection against sea lice (sea lice [5]; T2, 40 days after injection, hexaflumuron, lufenuron about 50 mg/kg, moxidectin 0.2 mg/kg): showed protection
lice on average (sea lice [5]; T3, 70 days after injection, formulated in Apoject 1-Fural, about 50 mg/kg, control group 5.6): 0.6
good protection against lice until T5, time after injection (sea lice [5]; lufenuron in Apoject 1-Fural, about 50 mg/kg): 128 days
protection following injection (sea lice [5]; other active substances, summary of trial): good protection for an extended period of time
